Results published in ChEMBL document CHEMBL4138123, “Design, synthesis and biological evaluation of novel pyrazolochalcones as potential modulators of PI3K/Akt/mTOR pathway and inducers of apoptosis in breast cancer cells” (Eur J Med Chem, 2017).

How the values were obtained:
Assay type in all cases: functional
CCRF-CEM = assay: Cytotoxicity against human CCRF-CEM cells assessed as growth inhibition after 48 hrs by sulforhodamine B assay
K562 = assay: Cytotoxicity against human K562 cells assessed as growth inhibition after 48 hrs by sulforhodamine B assay; details: K562, 48 h
RPMI-8226 [1] = assay: Cytotoxicity against human RPMI8226 cells assessed as growth inhibition after 48 hrs by sulforhodamine B assay; details: RPMI-8226, 48 h
SR = assay: Cytotoxicity against human SR cells assessed as growth inhibition after 48 hrs by sulforhodamine B assay
NCI-H23 = assay: Cytotoxicity against human NCI-H23 cells assessed as growth inhibition after 48 hrs by sulforhodamine B assay; details: NCI-H23, 48 h; for CC50: read-out: LC50 (the source's name)
NCI-H460 = assay: Cytotoxicity against human NCI-H460 cells assessed as growth inhibition after 48 hrs by sulforhodamine B assay; details: NCI-H460, 48 h
HCT-116 [2] = assay: Cytotoxicity against human HCT116 cells assessed as growth inhibition after 48 hrs by sulforhodamine B assay; details: HCT-116, 48 h
SF-268 = assay: Cytotoxicity against human SF268 cells assessed as growth inhibition after 48 hrs by sulforhodamine B assay; details: SF-268, 48 h; for CC50: read-out: LC50 (the source's name)
M14 = assay: Cytotoxicity against human M14 cells assessed as growth inhibition after 48 hrs by sulforhodamine B assay; details: M14, 48 h
SK-MEL-5 = assay: Cytotoxicity against human SK-MEL-5 cells assessed as growth inhibition after 48 hrs by sulforhodamine B assay; details: SK-MEL-5, 48 h
OVCAR-5 [3] = assay: Cytotoxicity against human OVCAR5 cells assessed as growth inhibition after 48 hrs by sulforhodamine B assay; details: OVCAR-5, 48 h
OVCAR-5 [4] = assay: Cytotoxicity against human OVCAR5 cells assessed as cell growth at 0.01 uM after 48 hrs by sulforhodamine B assay relative to control; details: OVCAR-5, 48 h, read-out: Activity
HT-29 = assay: Cytotoxicity against human HT-29 cells assessed as cell growth at 0.01 uM after 48 hrs by sulforhodamine B assay relative to control; details: HT-29, 48 h, read-out: Activity
COLO 205 [5] = assay: Cytotoxicity against human COLO205 cells assessed as cell growth at 0.01 uM after 48 hrs by sulforhodamine B assay relative to control; details: COLO 205, 48 h, read-out: Activity
MOLT-4 = assay: Cytotoxicity against human MOLT4 cells assessed as cell growth at 0.01 uM after 48 hrs by sulforhodamine B assay relative to control; details: MOLT-4, 48 h, read-out: Activity
T47D [6] = assay: Cytotoxicity against human T47D cells assessed as cell growth at 0.01 uM after 48 hrs by sulforhodamine B assay relative to control; details: read-out: Activity
HCC 2998 = assay: Cytotoxicity against human HCC2998 cells assessed as cell growth at 0.1 uM after 48 hrs by sulforhodamine B assay relative to control; details: HCC 2998, 48 h, read-out: Activity
UACC-257 = assay: Cytotoxicity against human UACC257 cells assessed as cell growth at 0.1 uM after 48 hrs by sulforhodamine B assay relative to control; details: UACC-257, 48 h, read-out: Activity
OVCAR-3 = assay: Cytotoxicity against human OVCAR3 cells assessed as cell growth at 0.1 uM after 48 hrs by sulforhodamine B assay relative to control; details: OVCAR-3, 48 h, read-out: Activity
786-0 = assay: Cytotoxicity against human 786-0 cells assessed as cell growth at 0.1 uM after 48 hrs by sulforhodamine B assay relative to control; details: 786-0, 48 h, read-out: Activity
PC-3 = assay: Cytotoxicity against human PC3 cells assessed as cell growth at 0.1 uM after 48 hrs by sulforhodamine B assay relative to control; details: PC-3, 48 h, read-out: Activity
DU-145 [7] = assay: Cytotoxicity against human DU145 cells assessed as cell growth at 0.1 uM after 48 hrs by sulforhodamine B assay relative to control; details: DU-145, 48 h, read-out: Activity
T47D [8] = assay: Cytotoxicity against human T47D cells assessed as cell growth at 0.1 uM after 48 hrs by sulforhodamine B assay relative to control; details: read-out: Activity
HL-60(TB) [9] = assay: Cytotoxicity against human HL-60(TB) cells assessed as cell growth at 1 uM after 48 hrs by sulforhodamine B assay relative to control; details: HL-60, 48 h, read-out: Activity
RPMI-8226 [10] = assay: Cytotoxicity against human RPMI8226 cells assessed as cell growth at 1 uM after 48 hrs by sulforhodamine B assay relative to control; details: RPMI-8226, 48 h, read-out: Activity
HOP-62 = assay: Cytotoxicity against human HOP62 cells assessed as cell growth at 1 uM after 48 hrs by sulforhodamine B assay relative to control; details: HOP-62, 48 h, read-out: Activity
NCI-H322M = assay: Cytotoxicity against human NCI-H322M cells assessed as cell growth at 1 uM after 48 hrs by sulforhodamine B assay relative to control; details: read-out: Activity
HCT-116 [11] = assay: Cytotoxicity against human HCT116 cells assessed as cell growth at 1 uM after 48 hrs by sulforhodamine B assay relative to control; details: HCT-116, 48 h, read-out: Activity
SW-620 = assay: Cytotoxicity against human SW620 cells assessed as cell growth at 1 uM after 48 hrs by sulforhodamine B assay relative to control; details: SW-620, 48 h, read-out: Activity
Hs-578T = assay: Cytotoxicity against human Hs 578T cells assessed as cell growth at 1 uM after 48 hrs by sulforhodamine B assay relative to control; details: read-out: Activity
RPMI-8226 [12] = assay: Cytotoxicity against human RPMI8226 cells assessed as cell growth at 10 uM after 48 hrs by sulforhodamine B assay relative to control; details: RPMI-8226, 48 h, read-out: Activity
ACHN = assay: Cytotoxicity against human ACHN cells assessed as cell growth at 10 uM after 48 hrs by sulforhodamine B assay relative to control; details: read-out: Activity
DU-145 [13] = assay: Cytotoxicity against human DU145 cells assessed as cell growth at 10 uM after 48 hrs by sulforhodamine B assay relative to control; details: DU-145, 48 h, read-out: Activity
COLO 205 [14] = assay: Cytotoxicity against human COLO205 cells assessed as cell growth at 100 uM after 48 hrs by sulforhodamine B assay relative to control; details: COLO 205, 48 h, read-out: Activity
OVCAR-4 = assay: Cytotoxicity against human OVCAR4 cells assessed as cell growth at 100 uM after 48 hrs by sulforhodamine B assay relative to control; details: OVCAR-4, 48 h, read-out: Activity
HL-60(TB) [15] = assay: Cytotoxicity against human HL-60(TB) cells assessed as cell growth at 10 uM after 48 hrs by sulforhodamine B assay relative to control; details: HL-60, 48 h, read-out: Activity

Structure (SMILES): COc1cc(-c2cc(/C=C/C(=O)c3ccc(N)cc3)[nH]n2)cc(OC)c1OC
- GI50 (CCRF-CEM): 0.55 µM
- LC50 (concentration killing 50% of cells) (CCRF-CEM): > 100 µM
- TGI (CCRF-CEM): 4.17 µM
- GI50 (K562): 0.72 µM
- LC50 (concentration killing 50% of cells) (K562): > 100 µM
- TGI (K562): 23.6 µM
- GI50 (RPMI-8226 [1]): 0.47 µM
- LC50 (RPMI-8226 [1]): > 100 µM
- TGI (RPMI-8226 [1]): 2.77 µM
- GI50 (SR): 0.32 µM
- TGI (SR): 2.75 µM
- CC50 (SR; read-out: LC50 (the source's name)): > 100 µM
- GI50 (NCI-H23): 2.48 µM
- TGI (NCI-H23): 6.79 µM
- CC50 (NCI-H23): 73.2 µM
- GI50 (NCI-H460): 1.8 µM
- LC50 (NCI-H460): 44.8 µM
- TGI (NCI-H460): 5.1 µM
- GI50 (HCT-116 [2]): 1.1 µM
- LC50 (HCT-116 [2]): 6.19 µM
- TGI (HCT-116 [2]): 2.61 µM
- GI50 (SF-268): 1.69 µM
- TGI (SF-268): 3.93 µM
- CC50 (SF-268): 9.16 µM
- GI50 (M14): 1.83 µM
- LC50 (concentration killing 50% of cells) (M14): 8.17 µM
- TGI (M14): 3.86 µM
- GI50 (SK-MEL-5): 1.65 µM
- LC50 (concentration killing 50% of cells) (SK-MEL-5): 5.69 µM
- TGI (SK-MEL-5): 3.06 µM
- GI50 (OVCAR-5 [3]): 1.78 µM
- LC50 (OVCAR-5 [3]): 7.91 µM
- TGI (OVCAR-5 [3]): 3.75 µM
- growth at 0.01 µM (OVCAR-5 [4]): 90%
- growth at 0.01 µM (HT-29): 98%
- growth at 0.01 µM (COLO 205 [5]): 93%
- growth at 0.01 µM (MOLT-4): 101%
- growth at 0.01 µM (T47D [6]): 83%
- growth at 0.1 µM (HCC 2998): 108%
- growth at 0.1 µM (UACC-257): 93%
- growth at 0.1 µM (OVCAR-3): 110%
- growth at 0.1 µM (786-0): 94%
- growth at 0.1 µM (PC-3): 94%
- growth at 0.1 µM (DU-145 [7]): 104%
- growth at 0.1 µM (T47D [8]): 85%
- growth at 1 µM (HL-60(TB) [9]): 66%
- growth at 1 µM (RPMI-8226 [10]): 28%
- growth at 1 µM (HOP-62): 86%
- growth at 1 µM (NCI-H322M): 94%
- growth at 1 µM (HCT-116 [11]): 56%
- growth at 1 µM (SW-620): 82%
- growth at 1 µM (Hs-578T): 87%
- growth at 10 µM (RPMI-8226 [12]): -35%
- growth at 10 µM (ACHN): -61%
- growth at 10 µM (DU-145 [13]): -50%
- growth at 100 µM (COLO 205 [14]): -78%
- growth at 100 µM (OVCAR-4): -96%

Structure (SMILES): COc1ccc(C(=O)/C=C/c2cc(-c3ccc(OC)c(OC)c3)n[nH]2)cc1OC
- GI50 (CCRF-CEM): 0.364 µM
- TGI (CCRF-CEM): 5.52 µM
- GI50 (K562): 0.619 µM
- TGI (K562): > 100 µM
- GI50 (RPMI-8226 [1]): 0.357 µM
- TGI (RPMI-8226 [1]): 2.26 µM
- GI50 (NCI-H23): 2.25 µM
- TGI (NCI-H23): 5.7 µM
- CC50 (NCI-H23): > 100 µM
- GI50 (NCI-H460): 0.606 µM
- TGI (NCI-H460): 4.36 µM
- GI50 (HCT-116 [2]): 0.369 µM
- TGI (HCT-116 [2]): 1.71 µM
- GI50 (SF-268): 2.09 µM
- TGI (SF-268): 9.82 µM
- CC50 (SF-268): > 100 µM
- GI50 (M14): 1.91 µM
- TGI (M14): 4.11 µM
- GI50 (SK-MEL-5): 1.58 µM
- TGI (SK-MEL-5): 2.96 µM
- GI50 (OVCAR-5 [3]): 1.76 µM
- TGI (OVCAR-5 [3]): 5.24 µM
- growth at 0.01 µM (OVCAR-5 [4]): 88%
- growth at 0.01 µM (HT-29): 98%
- growth at 0.01 µM (COLO 205 [5]): 90%
- growth at 0.01 µM (MOLT-4): 103%
- growth at 0.01 µM (T47D [6]): 82%
- growth at 0.1 µM (HCC 2998): 101%
- growth at 0.1 µM (UACC-257): 94%
- growth at 0.1 µM (OVCAR-3): 109%
- growth at 0.1 µM (786-0): 96%
- growth at 0.1 µM (PC-3): 95%
- growth at 0.1 µM (DU-145 [7]): 105%
- growth at 0.1 µM (T47D [8]): 86%
- growth at 1 µM (HL-60(TB) [9]): 86%
- growth at 1 µM (RPMI-8226 [10]): 17%
- growth at 1 µM (HOP-62): 73%
- growth at 1 µM (NCI-H322M): 94%
- growth at 1 µM (HCT-116 [11]): 21%
- growth at 1 µM (SW-620): 66%
- growth at 1 µM (Hs-578T): 87%
- growth at 10 µM (HL-60(TB) [15]): 4%
- growth at 10 µM (RPMI-8226 [12]): -30%
- growth at 10 µM (ACHN): -54%
- growth at 10 µM (DU-145 [13]): -34%
- growth at 100 µM (COLO 205 [14]): -70%
- growth at 100 µM (OVCAR-4): -40%
